Source: ChEMBL document CHEMBL4673296 (J Med Chem, 2020)
Activity calls are given as the source filed them. The calls are words filed in the database; no cut-off is given here.

Legend:
[1] = molecular target: T1, Serine/threonine-protein kinase ULK1 (Homo sapiens, UniProt O75385); assay: Inhibition of recombinant human ULK1 (1-649) expressed in Sf9 cells using myelin basic protein as substrate by ADP-glo assay; conditions: sf9
T1 sequence (O75385 whole entry): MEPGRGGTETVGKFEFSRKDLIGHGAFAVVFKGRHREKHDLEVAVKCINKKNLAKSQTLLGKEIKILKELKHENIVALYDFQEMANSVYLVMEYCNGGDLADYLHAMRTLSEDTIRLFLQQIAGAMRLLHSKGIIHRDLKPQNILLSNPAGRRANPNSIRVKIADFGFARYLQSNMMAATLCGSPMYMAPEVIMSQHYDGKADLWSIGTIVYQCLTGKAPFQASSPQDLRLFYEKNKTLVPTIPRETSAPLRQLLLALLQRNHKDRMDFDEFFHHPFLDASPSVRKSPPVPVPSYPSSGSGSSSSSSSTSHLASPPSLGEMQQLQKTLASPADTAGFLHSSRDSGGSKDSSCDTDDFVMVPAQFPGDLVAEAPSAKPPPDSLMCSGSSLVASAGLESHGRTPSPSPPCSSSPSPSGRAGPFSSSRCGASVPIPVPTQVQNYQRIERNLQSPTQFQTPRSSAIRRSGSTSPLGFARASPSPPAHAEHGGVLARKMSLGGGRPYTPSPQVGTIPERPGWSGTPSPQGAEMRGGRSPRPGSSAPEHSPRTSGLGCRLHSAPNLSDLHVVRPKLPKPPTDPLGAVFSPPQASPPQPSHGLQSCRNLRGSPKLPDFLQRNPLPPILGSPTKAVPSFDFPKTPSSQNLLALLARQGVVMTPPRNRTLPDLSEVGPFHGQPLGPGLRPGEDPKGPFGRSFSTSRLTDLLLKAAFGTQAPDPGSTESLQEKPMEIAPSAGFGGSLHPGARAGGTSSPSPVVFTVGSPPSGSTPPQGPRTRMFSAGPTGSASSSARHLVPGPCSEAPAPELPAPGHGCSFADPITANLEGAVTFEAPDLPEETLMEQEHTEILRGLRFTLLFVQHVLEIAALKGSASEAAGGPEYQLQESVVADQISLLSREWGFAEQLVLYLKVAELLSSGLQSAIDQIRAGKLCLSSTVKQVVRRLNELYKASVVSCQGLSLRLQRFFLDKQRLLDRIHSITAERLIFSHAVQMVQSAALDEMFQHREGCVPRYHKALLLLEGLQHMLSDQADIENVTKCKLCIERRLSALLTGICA

[2] = molecular target: T2, Serine/threonine-protein kinase ULK2 (Homo sapiens, UniProt Q8IYT8); assay: Inhibition of ULK2 (unknown origin) expressed in HEK293T cells incubated for 2 hrs by NanoBRET assay; assay type: cell-based
T2 sequence (Q8IYT8 whole entry): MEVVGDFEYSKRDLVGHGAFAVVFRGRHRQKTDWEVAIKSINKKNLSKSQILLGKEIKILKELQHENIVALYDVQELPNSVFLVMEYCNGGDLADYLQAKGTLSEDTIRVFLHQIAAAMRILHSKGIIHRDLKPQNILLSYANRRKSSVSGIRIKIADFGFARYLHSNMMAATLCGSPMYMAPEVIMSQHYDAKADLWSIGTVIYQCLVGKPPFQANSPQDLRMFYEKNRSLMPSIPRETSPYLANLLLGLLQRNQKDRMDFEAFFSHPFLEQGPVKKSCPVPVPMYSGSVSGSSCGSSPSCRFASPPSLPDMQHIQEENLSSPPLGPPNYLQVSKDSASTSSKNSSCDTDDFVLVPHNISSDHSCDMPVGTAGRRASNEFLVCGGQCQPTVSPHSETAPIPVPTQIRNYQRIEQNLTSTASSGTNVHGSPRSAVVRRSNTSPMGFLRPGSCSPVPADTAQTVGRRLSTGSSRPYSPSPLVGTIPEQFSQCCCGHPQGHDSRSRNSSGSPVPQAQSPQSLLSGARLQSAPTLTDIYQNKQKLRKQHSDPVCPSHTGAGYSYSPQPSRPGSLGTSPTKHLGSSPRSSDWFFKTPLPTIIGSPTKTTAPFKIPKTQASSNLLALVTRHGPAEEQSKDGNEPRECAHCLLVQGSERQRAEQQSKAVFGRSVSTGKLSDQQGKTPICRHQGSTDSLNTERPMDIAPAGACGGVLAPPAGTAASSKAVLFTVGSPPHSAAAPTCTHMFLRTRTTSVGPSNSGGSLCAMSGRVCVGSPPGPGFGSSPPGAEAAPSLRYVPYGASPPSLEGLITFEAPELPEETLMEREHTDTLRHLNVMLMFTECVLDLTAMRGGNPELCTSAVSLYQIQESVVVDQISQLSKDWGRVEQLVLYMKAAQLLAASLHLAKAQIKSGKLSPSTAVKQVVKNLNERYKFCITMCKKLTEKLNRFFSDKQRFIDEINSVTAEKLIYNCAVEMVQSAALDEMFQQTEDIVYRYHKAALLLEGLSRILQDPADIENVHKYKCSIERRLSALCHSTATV

[3] = Efflux ratio of apparent permeability from basolateral side to apical side over apical side to basolateral side in human Caco2 cells; assay type: ADME, cell-based; conditions: Caco-2
[4] = molecular target: T3, Serine/threonine-protein kinase ULK1 (Homo sapiens) (UniProt O75385); assay: Inhibition of Myc-tagged ULK1 (unknown origin) expressed in HEK293T cells cotransfected with wild-type Flag tagged Beclin-1 assessed as decrease in pBeclin1 Ser15 at 10 uM measured after 1 hr by Western blot analysis relative to control; assay type: cell-based
T3 sequence (whole entry): T1 sequence (O75385 whole entry)

[5] = Half life in C57BL/6J mouse at 30 mg/kg, po measured upto 24 hrs by LC-MS/MS analysis; assay type: ADME, organism-based; conditions: in vivo
[6] = Cmax in C57BL/6J mouse at 30 mg/kg, po measured upto 24 hrs by LC-MS/MS analysis; assay type: ADME, organism-based; parameters: route oral, dose 30 mg/kg, time <=24; conditions: in vivo
[7] = AUC (0 to t) in C57BL/6J mouse at 30 mg/kg, po measured upto 24 hrs by LC-MS/MS analysis; assay type: ADME, organism-based; parameters: dose 30 mg/kg, time <=24; conditions: in vivo
Mus musculus [8] = assay: Ex vivo inhibition of ULK1 in liver lysate of C57BL/6J mouse assessed as decrease in pATG13 (Ser318) levels at 10 mg/kg, po measured after 2 hrs by Western blot analysis; assay type: functional, organism-based
Mus musculus [9] = assay: Decrease in ULK1 level in liver lysate of C57BL/6J mouse at 10 mg/kg, po measured after 2 hrs by Western blot analysis; assay type: functional, organism-based
MDA-MB-468 [10] = assay: Induction of apoptosis in human MDA-MB-468 cells assessed as necrotic cells at 10 uM measured after 18 hrs in normal growth media by AnnexinV/7-AAD staining based flow cytometric analysis (reference value: 0.2%); assay type: functional
[11] = Inhibition of starvation-induced autophagic flux in human MDA-MB-468 cells expressing tandem-labelled mCherryEGFP-LC3 chimeric protein at 10 uM measured after 18 hrs in EBSS media by flow cytometry (Rvb >90%); assay type: functional
MDA-MB-468 [12] = assay: Reduction in autophagosome accumulation in human MDA-MB-468 cells at 10 uM by transmission electron microscopic analysis; assay type: functional, cell-based
MDA-MB-468 [13] = assay: Synergistic cytotoxicity against human MDA-MB-468 cells at 0.19 to 1.7 uM in presence of PARP inhibitor niraparib measured after 72 hrs by Celltiter-Glo assay; assay type: functional, cell-based; conditions: dose 0.19-1.7 µM

## COc1ccc(Nc2ncc(C(F)(F)F)c(NC3CC3)n2)cc1OC
[1]
  IC50: 13 nM
[2]
  IC50: 1160 nM
[3]
  efflux ratio: < 2
[4]
  inhibition: 60%
[5]
  half-life: 102 min
[6]
  Cmax: 990 nM
[7]
  AUC(0-t) at 24 h: 2.3 µM·h
Mus musculus [8]
  inhibition: Active
Mus musculus [9]
  inhibition: Active
MDA-MB-468 [10]
  Activity: 0.2%
[11]
  inhibition at 10 µM: 60%
MDA-MB-468 [12]
  inhibition: Active
MDA-MB-468 [13]
  Activity: Active
